The source made the active and inactive calls. The calls are words filed in the database; no cut-off is given here.
Tests used:
[1] = molecular target: C-C chemokine receptor type 8 (Homo sapiens, UniProt P51685); test: Antagonist activity at human recombinant CCR8 expressed in RBL cells assessed as inhibition of I-309-induced intracellular calcium mobilization by FLIPR assay; format: functional, cell-based
Homo sapiens = species: Homo sapiens; test: Selectivity for hERG over CCR8
[2] = molecular target: Voltage-gated inwardly rectifying potassium channel KCNH2 (Homo sapiens, UniProt Q12809); test: Inhibition of hERG; format: toxicity
Liver microsomes [3] = test: Intrinsic clearance in human liver microsome; format: ADME
Liver microsomes [4] = test: Intrinsic clearance in rat liver microsome; format: ADME
[5] = Volume of distribution at steady state in mouse at 1 mg/kg, iv or 2 mg/kg, po; format: ADME, organism-based; conditions: in vivo, read-out: Vdss
[6] = Oral bioavailability in mouse at 2 mg/kg; format: ADME, organism-based; conditions: in vivo
[7] = Clearance in mouse blood at 1 mg/kg, iv or 2 mg/kg, po; format: ADME, organism-based
[8] = Half life in mouse at 1 mg/kg, iv or 2 mg/kg, po; format: ADME, organism-based; conditions: in vivo
[9] = molecular target: T1, C-C chemokine receptor type 8 (Mus musculus) (UniProt P56484); test: Antagonist activity at mouse CCR8 by FLIPR assay; format: functional
T1 sequence (whole entry): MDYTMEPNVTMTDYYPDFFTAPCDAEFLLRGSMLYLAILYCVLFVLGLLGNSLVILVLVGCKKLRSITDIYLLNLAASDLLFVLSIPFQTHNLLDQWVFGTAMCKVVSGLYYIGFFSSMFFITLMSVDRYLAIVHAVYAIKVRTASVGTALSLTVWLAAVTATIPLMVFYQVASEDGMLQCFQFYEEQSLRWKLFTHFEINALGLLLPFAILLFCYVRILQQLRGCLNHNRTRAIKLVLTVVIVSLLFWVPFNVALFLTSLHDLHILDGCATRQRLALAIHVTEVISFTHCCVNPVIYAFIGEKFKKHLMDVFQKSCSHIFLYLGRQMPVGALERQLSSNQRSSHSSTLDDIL

Rattus norvegicus = species: Rattus norvegicus; test: Antagonist activity at rat CCR8 by FLIPR assay; format: functional
Cavia porcellus = species: Cavia porcellus; test: Antagonist activity at guinea pig CCR8 by FLIPR assay; format: functional

Sequence of C-C chemokine receptor type 8 (P51685 whole entry): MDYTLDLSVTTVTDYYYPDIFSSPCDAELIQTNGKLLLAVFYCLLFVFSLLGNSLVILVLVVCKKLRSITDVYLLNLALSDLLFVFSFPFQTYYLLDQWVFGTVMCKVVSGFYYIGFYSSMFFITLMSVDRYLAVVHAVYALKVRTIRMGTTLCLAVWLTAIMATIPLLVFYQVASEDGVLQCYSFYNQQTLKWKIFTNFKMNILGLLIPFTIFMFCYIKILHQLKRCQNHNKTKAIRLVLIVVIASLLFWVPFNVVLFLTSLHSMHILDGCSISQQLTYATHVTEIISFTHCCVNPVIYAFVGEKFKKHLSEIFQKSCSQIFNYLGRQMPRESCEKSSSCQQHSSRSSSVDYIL
Sequence of Voltage-gated inwardly rectifying potassium channel KCNH2 (Q12809 whole entry): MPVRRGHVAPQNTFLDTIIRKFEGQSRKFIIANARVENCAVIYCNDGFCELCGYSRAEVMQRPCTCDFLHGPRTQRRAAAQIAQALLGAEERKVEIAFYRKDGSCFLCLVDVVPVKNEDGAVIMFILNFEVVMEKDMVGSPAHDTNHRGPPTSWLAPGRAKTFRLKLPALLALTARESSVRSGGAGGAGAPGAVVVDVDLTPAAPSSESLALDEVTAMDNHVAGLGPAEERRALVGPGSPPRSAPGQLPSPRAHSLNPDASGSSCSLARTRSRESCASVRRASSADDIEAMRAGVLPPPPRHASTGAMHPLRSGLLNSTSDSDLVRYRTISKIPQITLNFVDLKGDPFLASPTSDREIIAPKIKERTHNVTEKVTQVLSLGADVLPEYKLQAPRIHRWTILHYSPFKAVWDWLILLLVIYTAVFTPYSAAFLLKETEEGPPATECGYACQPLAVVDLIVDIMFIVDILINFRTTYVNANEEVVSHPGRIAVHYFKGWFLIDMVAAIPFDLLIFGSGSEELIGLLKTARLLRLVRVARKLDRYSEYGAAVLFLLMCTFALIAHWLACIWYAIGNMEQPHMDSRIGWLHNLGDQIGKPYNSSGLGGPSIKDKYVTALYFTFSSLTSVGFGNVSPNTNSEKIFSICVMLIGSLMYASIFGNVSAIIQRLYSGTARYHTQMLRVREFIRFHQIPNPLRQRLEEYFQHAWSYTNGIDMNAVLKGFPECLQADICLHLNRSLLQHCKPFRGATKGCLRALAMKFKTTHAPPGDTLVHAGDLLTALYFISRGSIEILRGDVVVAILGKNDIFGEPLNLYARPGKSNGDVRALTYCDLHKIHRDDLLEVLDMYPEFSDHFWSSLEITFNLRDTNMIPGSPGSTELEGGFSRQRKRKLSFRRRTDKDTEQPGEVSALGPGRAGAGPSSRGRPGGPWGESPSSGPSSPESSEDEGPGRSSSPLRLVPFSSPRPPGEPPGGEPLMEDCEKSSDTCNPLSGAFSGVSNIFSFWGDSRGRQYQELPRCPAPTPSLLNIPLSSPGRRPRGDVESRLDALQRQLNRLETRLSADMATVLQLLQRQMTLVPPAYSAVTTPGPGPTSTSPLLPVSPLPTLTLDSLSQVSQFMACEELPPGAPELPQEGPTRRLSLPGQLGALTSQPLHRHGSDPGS

IC50 [1] | SMILES | other results
> 50100 nM | COc1ccc2nccc(C3CN(C4CCN(Cc5cc6ccccc6[nH]5)C4)C(=O)O3)c2c1 (centres undefined) | –
6310 nM | COc1ccc2nccc(C3CN(C4CCN(C(=O)c5ccc(Cl)c(Cl)c5)CC4)C(=O)O3)c2c1 (centres undefined) | –
25.1 nM | COc1ccc2nccc(C3CN(C4CCN(Cc5cc6ccccc6[nH]5)CC4)C(=O)O3)c2c1 (centres undefined) | –
1260 nM | COc1ccc2nccc(C3CN(C4CCN(Cc5ccc6ccccc6c5)CC4)C(=O)O3)c2c1 (centres undefined) | –
> 50100 nM | O=C1OC(c2ccc3ccccc3n2)CN1C1CCN(Cc2cc3ccccc3[nH]2)CC1 (centres undefined) | –
6310 nM | COc1ccc2nccc(C3CN(CCCN(C)Cc4cc5ccccc5[nH]4)C(=O)O3)c2c1 (centres undefined) | –
3160 nM | COc1ccc2nccc(C3CN(C4CCN(Cc5ccc6ccccc6n5)CC4)C(=O)O3)c2c1 (centres undefined) | –
39.8 nM | COc1ccc2nccc(C3CN(C4CCN(Cc5ccc(C)c(C)c5)CC4)C(=O)O3)c2c1 (centres undefined) | Selectivity ratio (Homo sapiens): 158; IC50 [2]: 6310 nM
3160 nM | COc1ccc2nccc(C3CN(C4CCN(Cc5cc6ccccc6n5C)CC4)C(=O)O3)c2c1 (centres undefined) | –
7940 nM | COc1ccc2nccc(C3CN(C4CCN(CC5CCCCC5)CC4)C(=O)O3)c2c1 (centres undefined) | –
> 50100 nM | COc1ccc2nccc(C3CN(C4CCN(Cc5c[nH]c6ccccc56)CC4)C(=O)O3)c2c1 (centres undefined) | –
251 nM | COc1ccc2nccc(C3CN(C4CCN(CCCc5ccccc5)CC4)C(=O)O3)c2c1 (centres undefined) | –
794 nM | COc1ccc2nccc(C3CN(C4CCN(Cc5cc6ccccc6s5)CC4)C(=O)O3)c2c1 (centres undefined) | –
1260 nM | COc1ccc(CN2CCC(N3CC(c4ccnc5ccc(OC)cc45)OC3=O)CC2)cc1 (centres undefined) | –
1000 nM | O=C1OC(c2ccnc3ccccc23)CN1C1CCN(Cc2cc3ccccc3[nH]2)CC1 (centres undefined) | –
50.1 nM | COc1ccc2nccc(C3CN(C4CCN(Cc5ccc(Br)cc5)CC4)C(=O)O3)c2c1 (centres undefined) | –
1580 nM | COc1ccc2nccc(C3CN(CCCNCc4cc5ccccc5[nH]4)C(=O)O3)c2c1 (centres undefined) | –
> 50100 nM | O=C1OC(c2cnc3ccccc3c2)CN1C1CCN(Cc2cc3ccccc3[nH]2)CC1 (centres undefined) | –

IC50 [1] | SMILES | other results
12600 nM | COc1ccc2nccc(C3CN(C4CCN(Cc5ccccc5)CC4)C(=O)O3)c2c1 (centres undefined) | –
126 nM | COc1ccc2nccc(C3CN(C4CCN(Cc5ccc(Cl)c(Cl)c5)CC4)C(=O)O3)c2c1 (centres undefined) | –
> 50100 nM | COc1ccc2nccc(C3CN(CC4CCCN(Cc5cc6ccccc6[nH]5)C4)C(=O)O3)c2c1 (centres undefined) | –
6310 nM | COc1ccc2nccc(C3CN(C4CCN(Cc5cccc(Cl)c5)CC4)C(=O)O3)c2c1 (centres undefined) | –
> 50100 nM | COc1ccc2nccc(C3CN(C4CCCCN(Cc5cc6ccccc6[nH]5)C4)C(=O)O3)c2c1 (centres undefined) | –
> 50100 nM | COc1ccc2nccc(C3CN(C4CCN(C)CC4)C(=O)O3)c2c1 (centres undefined) | –
> 50100 nM | COc1ccc2nccc(C3CN(CC4CCN(Cc5cc6ccccc6[nH]5)CC4)C(=O)O3)c2c1 (centres undefined) | –
31.6 nM | COc1ccc2nccc(C3CN(C4CCN(Cc5cc6ccccc6[nH]5)CC4)C(=O)O3)c2n1 (centres undefined) | –
20 nM | COc1ccc2nccc([C@@H]3CN(C4CCN(Cc5cc6ccccc6[nH]5)CC4)C(=O)O3)c2c1 | CL (Liver microsomes [3]): 7 mL/min/g; CL (Liver microsomes [4]): 7 mL/min/g; Vd [5]: 2.4 L/kg; bioavailability [6]: 18%; clearance [7]: 38 mL/min/kg; half-life [8]: 1 h; Selectivity ratio (Homo sapiens): 79; Activity [9]: inactive; Activity (Rattus norvegicus): inactive; Activity (Cavia porcellus): inactive; IC50 [2]: 1580 nM
631 nM | COc1ccc2nccc(C3CN(C4CCN(Cc5ccc(Cl)cc5)CC4)C(=O)O3)c2c1 (centres undefined) | –
12600 nM | COc1ccc2nccc(C3CN(C4CCN(Cc5ccc(C#N)cc5)CC4)C(=O)O3)c2c1 (centres undefined) | –
> 50100 nM | COc1ccc2nccc(C3CN(C4CCN(Cc5ccccc5Cl)CC4)C(=O)O3)c2c1 (centres undefined) | –
> 50100 nM | COc1ccc2nccc(C3CN(C4CCN(S(=O)(=O)c5ccc(Cl)c(Cl)c5)CC4)C(=O)O3)c2c1 (centres undefined) | –
> 50100 nM | O=C1OC(c2ccncc2)CN1C1CCN(Cc2cc3ccccc3[nH]2)CC1 (centres undefined) | –
> 50100 nM | COc1ccc2nccc(C3CN(C4CCN(Cc5ccc(-c6ccccc6)cc5)CC4)C(=O)O3)c2c1 (centres undefined) | –
1260 nM | COc1ccc2nccc(C3CN(C4CCN(Cc5cc6ccccc6o5)CC4)C(=O)O3)c2c1 (centres undefined) | –
501 nM | CCCCCCN1CCC(N2CC(c3ccnc4ccc(OC)cc34)OC2=O)CC1 (centres undefined) | –
> 50100 nM | O=C1OC(c2cccc3ccccc23)CN1C1CCN(Cc2cc3ccccc3[nH]2)CC1 (centres undefined) | –

From ChEMBL document CHEMBL1139124, “Oxazolidinones as novel human CCR8 antagonists” (Bioorg Med Chem Lett, 2007)
